Assay results: the METLIN SMRT retention time set (Domingo-Almenara et al. 2019)

Experiment: gradient 5% acetonitrile 3 min, to 50% in 2 min, to 85% in 15 min, held 3 min, 100 µL/min
Settings: column: Zorbax Extend-C18 2.1 x 50 mm; eluents: water / acetonitrile, 0.1% formic acid
Method in brief: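 Each retention time is based on an adduct peak selected computationally and verified by manual inspection. Measurements used HPLC–quadrupole time-of-flight mass spectrometry in positive and negative ionization mode on mixtures of ~100 pure standards. Chromatography ran on a Zorbax Extend-C18 column (2.1 × 50 mm, 1.8 μm) at 100 μL/min with water and acetonitrile, each containing 0.1% formic acid, and dead and dwell volumes of 40 μL and 900 μL.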

Work on `O=C(NC(c1ccccc1)c1nnc(N2CCCC2)o1)c1ccc(F)c(Cl)c1` (configuration not stated) yielded an RP-LC retention time of 899 s.
With `COc1ccc(CNC(=O)CN2CCN(Cc3ccc(C)cc3)C(=O)C2=O)cc1` the RP-LC retention time was 734 s.
For `Cn1cnc(S(=O)(=O)N2CCOc3ccc(CN4CCc5ccccc5C4)cc3C2)c1`, the RP-LC retention time was 518 s.
In the case of `CCc1cccc(N2C(=O)CN(S(C)(=O)=O)CC2(C)C(=O)NCc2ccc(F)cc2)c1` (configuration not stated), the RP-LC retention time is reported as 847 s.
`CCn1nc(N2CCCC(NS(=O)(=O)c3cccc4cccnc34)C2)ccc1=O` (configuration not stated) showed an RP-LC retention time of 736 s.
Work on `CCC(=O)N1CCc2cc(-c3ccc(C(=O)NCCCN4CCOCC4)cc3)ccc21` yielded an RP-LC retention time of 628 s.
Compound `CCOC(=O)c1noc2ncnc(Nc3ccc(CC)cc3)c12` has an RP-LC retention time of 1060 s.
Compound `Cc1nn(-c2ccc(N3CCCC3)nn2)c(C)c1CCC(=O)N1CCN(c2ncccn2)CC1` has an RP-LC retention time of 605 s.
For `CCOc1nc2ccccc2nc1N1CCCC(C(=O)N2CCN(c3ccccc3)CC2)C1` (configuration not stated), the RP-LC retention time was 1280 s.
`Cn1c(=O)c(N2CCC(NC(=O)Nc3ccc(Cl)cc3)CC2)nc2cccnc21` showed an RP-LC retention time of 907 s.
Compound `COc1cccc(CNC(=O)C2(C)CCCN(C(=O)Nc3ccc(F)cc3)C2)c1` (configuration not stated) has an RP-LC retention time of 858 s.
Work on `O=C(NCc1cccc(C(F)(F)F)c1)c1c[nH]c2ncccc12` yielded an RP-LC retention time of 760 s.
`CN1c2ccc(F)cc2C(=O)NC12CCN(C(=O)c1ccc(F)c(Cl)c1)CC2` gave an RP-LC retention time of 823 s.
With `COC(=O)c1c(C)[nH]c(C(=O)N2CCC(CC(=O)NCCc3c[nH]c4ccc(C)cc34)CC2)c1C` the RP-LC retention time was 750 s.
`O=C1N(c2cccc(F)c2)C(c2ccccc2)C12CCN(Cc1cccc(F)c1O)CC2` (configuration not stated) showed an RP-LC retention time of 774 s.
`CN(C)CCn1nnc2cc(-c3noc(Cc4ccc(F)cc4)n3)ccc21` showed an RP-LC retention time of 714 s.
In the case of `CCOC(=O)c1[nH]c(C)c(CCC(=O)N2CCC(C(=O)NCCN3CCN(CC)CC3)CC2)c1C`, the RP-LC retention time is reported as 577 s.
For `Cc1nnc2nc(-c3ccccc3)nc(-c3ccccc3)n12`, the RP-LC retention time was 1130 s.
For `O=C(NCc1ccco1)C1CC(=O)N(c2ccc3c(c2)CCN3C(=O)C2CC2)C1` (configuration not stated), the RP-LC retention time was 687 s.
In the case of `COc1ccccc1CNc1nccc(-n2ccc(C)n2)n1`, the RP-LC retention time is reported as 805 s.
Work on `CCN1CCCC1CNC(=O)Cn1c2ccccc2c2cnn(C)c(=O)c21` (configuration not stated) yielded an RP-LC retention time of 554 s.
With `COc1cccc(CNC2CCN(c3ccc(C(=O)NC4CC4)cn3)C2)c1O` (configuration not stated) the RP-LC retention time was 556 s.
Work on `Cc1cc(=O)n(CC(=O)Nc2ccccc2Cl)c(N2CCOCC2)n1` yielded an RP-LC retention time of 863 s.
In the case of `Cc1cc(C)cc(C(=O)Nc2ccc(N3CCN(c4ccccc4)C3=O)nc2)c1`, the RP-LC retention time is reported as 1050 s.
Compound `COc1ccc(Cl)cc1NC(=O)NCC1(CO)CC1` has an RP-LC retention time of 684 s.
Work on `CN(Cc1ccccc1)C(=O)CN1c2ccc(F)cc2-c2ccccc2S1(=O)=O` yielded an RP-LC retention time of 994 s.
For `CC(NC(=O)c1cc2sccc2n1C)c1ccc2c(c1)OCCO2` (configuration not stated), the RP-LC retention time was 903 s.
Work on `Cc1nc(-c2cccnc2)nc2c1CCC(=O)N2CCN(C)C` yielded an RP-LC retention time of 503 s.
`CCCn1ccc2sc(C)c(C(=O)NCc3cc(F)ccc3F)c2c1=O` showed an RP-LC retention time of 940 s.
Compound `CCOC(=O)c1c(C)oc(C)c(C(=O)OCC)c1=O` has an RP-LC retention time of 780 s.
`COc1ccc(CC(=O)N2CC(c3nc(C)no3)C3(CCOCC3)C2)cc1` (configuration not stated) gave an RP-LC retention time of 712 s.
With `Cc1ccc2cc(CCC(=O)NCCc3cccnc3)c(=O)[nH]c2c1` the RP-LC retention time was 586 s.
`CN1CCN(CCNC(=O)c2cnn3c4c(cnc23)CCCCCC4)CC1` gave an RP-LC retention time of 599 s.
With `CCS(=O)(=O)N1CCCc2cc(C(=O)Nc3ccccc3Br)ccc21` the RP-LC retention time was 986 s.
Work on `COc1ccc(-c2csc(Cc3nc(-c4ccc(Cl)cc4)no3)n2)cc1` yielded an RP-LC retention time of 1290 s.
`COc1ccc(-c2nc(C3CC(=O)N(c4ccc(Cl)cc4)C3)no2)cc1OC` (configuration not stated) showed an RP-LC retention time of 944 s.
`CCCN1CCCCc2cc(C(=O)NC3CCS(=O)(=O)C3)sc21` (configuration not stated) gave an RP-LC retention time of 884 s.
